# Measurements: US12552776B2, “Crystalline forms” (priority 2021, dated 2026)
# Where a name gives a salt, the structure may show the parent alone.
# What was measured:
# [1] = Photostability study, D65 lamp 4000 lux, 25° C./60% RH, HPLC; type: physicochemical
# Procedure: (§1) • HPLC data are obtained by Waters Alliance 2695 HPLC system with 2996 PDA detector using the following conditions; • Column: XBridge Phenyl (3.5 micrometers, 4.6×150 mm), • Eluent: acetonitrile/0.3% perchloric acid=35:65, • Detection: UV at 215 nm, • Flow rate: 1 mL/min, and • Column temperature: 40° C.
# Photostability samples are set in Nagano Science LTL-200D3CJ-14. The samples are placed in the chamber and stored under 25° C./60% RH condition and irradiated with a D65 lamp on light condition of 4000 lux. HCl-salt Crystalline Form A, HCl-salt Amorphous, and Free-base Amorphous samples store for 13, 26 and 50 days under the condition are analyzed by HPLC, respectively.
# FIGS. 7, 8 and 9 show the data of degradation products except for the existing products at initial samples (Day 0), i.e., definitely arising peaks on the HPLC chart after storing initial samples under light exposure. The relative retention time (RRT) represents a ratio of retention time (RT) of a target peak to RT of the main peak. In case of the appearance of the peak at same RRT at least two consecutive storing periods of 13, 26 and 50 days, the arising peak is recognized as a degradation product.
# [2] = type: physicochemical; conditions: for other arising degradation products (not existing at Day 0) / remaining: 40° C./75% RH, storage period of 50 days, HPLC
# Procedure: as §1
# Solid-state stability study is performed using Nagano Science Constant temperature/humidity control chamber LH-20-11M, LH-21-11M, LTL-200D3CJ-14 or LTX-01. The samples are placed in the chamber and exposed under 25° C./60% RH, 40° C./75% RH and/or irradiated with the light such as D65 lamp or Xenon lamp. The crystalline form, thermal behavior, purity and/or weight change of the resultant sample after the exposure or irradiation are evaluated by XRPD, TG/DTA or DSC, HPLC, microbalance, respectively.
# [3] = Hygroscopicity study by dynamic vapor sorption (DVS) analysis; type: physicochemical; conditions: for weight gain %: 25° C., DVS sorption; for water absorbed (water adsorption): 90% RH at 25° C.
# Procedure: Hygroscopicity study is performed using Surface Measurement Systems DVS-1. The sample is placed on a microbalance in the instrument and the weight change during the sorption at 25° C. is monitored. One of the programs consists of a sorption scan from 0 to 90% relative humidity (RH) at 5% RH increments and the sample is allowed to equilibrate for 360 minutes or until equilibration had been attained at each step.
# The hygroscopicity study is performed by using dynamic vapor sorption (DVS) analysis.
# Chiral analysis by HPLC = type: physicochemical; conditions: CHIRALPAK IC HPLC
# Procedure: • High Performance Liquid Chromatography (HPLC) measurement • HPLC data are obtained by Waters Alliance 2695 HPLC system with 2996 PDA detector using the following conditions; • Column: DAICEL CHIRALPAK IC (5 micrometers, 4.6×250 mm), • Eluent: n-hexane/ethanol/diethylamine=87/13/0.1 (v/v/v), • Detection: UV at 254 nm, • Flow rate: 1 mL/min, and • Column temperature: 40° C. • Data processing is performed with Empower 3 software supplied from Waters Corporation
# [4] = Solubility study in buffers and water for injection; type: physicochemical; conditions: aqueous buffer, thermodynamic from solid, buffers pH 1.06, 2.98, 4.44, 7.34, 7.40, 9.22 and WFI, 5 mg in 20 microL
# Procedure: Each 5 mg of HCl-salt Crystalline Form A was weighed in a vial and each 20 microL of buffers (pH 1.06, 2.98, 4.44, 7.34, 7.40 and 9.22) and WFI (water for injection) was added to the vial. After the mixture was shaken with a vortex mixer and stood still for 15 min, no insoluble matter was observed. The mixture kept a clear solution after still standing for 2 days.
# motilin receptor = biological target: T1, motilin receptor (Homo sapiens, UniProt O43193); assay: Motilin receptor agonistic activity, reporter gene assay; type: cell-based; conditions: cell expressing motilin receptor and reporter gene; compared with initial sample
# T1 construct: 'the cell expressing motilin receptor and reporter gene'
# T1 sequence (O43193 whole entry, species assumed): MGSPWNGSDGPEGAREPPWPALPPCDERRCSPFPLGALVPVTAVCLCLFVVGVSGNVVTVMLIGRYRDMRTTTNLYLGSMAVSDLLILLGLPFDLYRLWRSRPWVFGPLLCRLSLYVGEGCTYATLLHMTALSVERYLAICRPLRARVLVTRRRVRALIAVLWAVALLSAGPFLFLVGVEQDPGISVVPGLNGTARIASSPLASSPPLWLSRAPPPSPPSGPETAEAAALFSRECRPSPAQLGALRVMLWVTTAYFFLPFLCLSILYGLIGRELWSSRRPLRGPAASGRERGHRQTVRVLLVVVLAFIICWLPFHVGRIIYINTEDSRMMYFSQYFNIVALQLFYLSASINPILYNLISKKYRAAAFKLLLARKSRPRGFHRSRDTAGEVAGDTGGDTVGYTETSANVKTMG
# Text: Motilin receptor agonistic activity is identified by reporter gene assay using the cell expressing motilin receptor and reporter gene. The dose-response curve of assay sample is plotted and calculated to determine an agonistic activity (EC50).
Compound,arising degradation products (peaks) due to irradiating light ([1]; 13 days),arising degradation products (peaks) due to irradiating light ([1]; 26 days),arising degradation products (peaks) due to irradiating light ([1]; 50 days),other arising degradation products (not existing at Day 0) [2],remaining [2],weight gain % ([3]; 50% RH),weight gain % ([3]; 60% RH),weight gain % ([3]; 70% RH),weight gain % ([3]; 80% RH),water absorbed (water adsorption) [3],weight gain % ([3]; 90% RH),stability in chiral analysis (Chiral analysis by HPLC),further results
"CC1(C)C(=O)N(C2CCN(C(=O)[C@H](CCc3ccccc3)NC(=O)[C@@H]3CCCNC3)CC2)c2ccccc21 [Free-base Amorphous, (R)—N—((S)-1-(4-(3,3-dimethyl-2-oxoindolin-1-yl)piperidin-1-yl)-1-oxo-4-phenylbutan-2-yl)piperidine-3-carboxamide]",2 peaks,4 peaks,4 peaks,four,97.2%,5.2%,7.1%,9.5%,11.7%,17.9 wt %,17.9%,,
"CC1(C)C(=O)N(C2CCN(C(=O)[C@H](CCc3ccccc3)NC(=O)[C@@H]3CCCNC3)CC2)c2ccccc21.Cl [HCl-salt Amorphous, (R)—N—((S)-1-(4-(3,3-dimethyl-2-oxoindolin-1-yl)piperidin-1-yl)-1-oxo-4-phenylbutan-2-yl)piperidine-3-carboxamide amorphous solid of hydrochloride]",2 peaks,5 peaks,5 peaks,one,97.0%,,,,,,,,"weight gain % ([3]; 50% RH, hydrochloride): 5.2%; weight gain % ([3]; 60% RH, hydrochloride): 7.6%; weight gain % ([3]; 70% RH, hydrochloride): 9.4%; weight gain % ([3]; 80% RH, hydrochloride): 13.3%; water absorbed (water adsorption) ([3]; hydrochloride): 20.5 wt %; weight gain % ([3]; 90% RH, hydrochloride): 20.5%"
"CC1(C)C(=O)N(C2CCN(C(=O)[C@H](CCc3ccccc3)NC(=O)[C@@H]3CCCNC3)CC2)c2ccccc21 [HCl-salt Crystalline Form A, (R)—N—((S)-1-(4-(3,3-dimethyl-2-oxoindolin-1-yl)piperidin-1-yl)-1-oxo-4-phenylbutan-2-yl)piperidine-3-carboxamide hydrochloride Crystalline Form A]",,,,no other arising degradation products,,0.0%,0.2%,0.4%,1.6%,less than or equal to 3.4 wt %,3.4%,preferable stability,"arising degradation products due to irradiating light ([1]; storing periods of 13, 26 and 50 days): no arising degradation products; changes in appearance, XRPD, IR (KBr), m.p. (DSC onset) and potency ([2]; during the storage period): no significant changes; solubility at 15 min [4]: > 250 mg/mL; agonistic activity (EC50) (motilin receptor): high potency consistent with initial sample"
"CC1(C)C(=O)N(C2CCN(C(=O)[C@H](CCc3ccccc3)NC(=O)[C@@H]3CCCNC3)CC2)c2ccccc21.Cl [HCl-salt Crystalline Form B, (R)—N—((S)-1-(4-(3,3-dimethyl-2-oxoindolin-1-yl)piperidin-1-yl)-1-oxo-4-phenylbutan-2-yl)piperidine-3-carboxamide hydrochloride Crystalline Form B]",,,,,,0.0%,0.0%,0.0%,4.9%,≤ 8.6 wt %,8.6%,preferable stability,
"CC1(C)C(=O)N(C2CCN(C(=O)[C@H](CCc3ccccc3)NC(=O)[C@@H]3CCCNC3)CC2)c2ccccc21.O=C(O)CNC(=O)c1ccccc1 [hippurate salt crystalline, (R)—N—((S)-1-(4-(3,3-dimethyl-2-oxoindolin-1-yl)piperidin-1-yl)-1-oxo-4-phenylbutan-2-yl)piperidine-3-carboxamide hippuric acid salt (hippurate salt)]",,,,,,,,,,16.0 wt %,,,observation in hygroscopicity study ([3]; 90% RH): partial deliquescence is observed
"CC1(C)C(=O)N(C2CCN(C(=O)[C@H](CCc3ccccc3)NC(=O)[C@@H]3CCCNC3)CC2)c2ccccc21.CS(=O)(=O)O [mesylate salt crystalline, (R)—N—((S)-1-(4-(3,3-dimethyl-2-oxoindolin-1-yl)piperidin-1-yl)-1-oxo-4-phenylbutan-2-yl)piperidine-3-carboxamide methanesulfonic acid salt (mesylate salt)]",,,,,,,,,,16.9 wt %,,,water adsorption ([3]; 60% RH): 3.7 wt %
